Results on eight compounds are retold here after ChEMBL document CHEMBL1201862, “PubChem BioAssay data set” (2004).

Each structure is given as a SMILES string.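 Tested at 5 concentrations; 48 h exposure; 96-well plates; endpoints linearly interpolated, else capped at highest concentration. The concentration for 50% growth inhibition is given as GI50.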 The source made the active and inactive calls. Rule as the data show it: active = GI50 up to about 1.1 µM and inactive = higher.

In general, GI50 refers to the concentration at which growth is held to half of that of the control.

Common to all, as to assay: DTP human tumour cell line panel, 48 h
For experiment [1], the system named is NCI-H23.
In experiment [2] the test system is OVCAR-8.
In experiment [3] the test system is NCI-H226.
Experiment [4] has as its system T47D.
Experiment [5] concerns SNB-75.
In experiment [6] the test system is HOP-62.
The subject of experiment [7] is HCT-116.
The subject of experiment [8] is UACC-62.
The test system of experiment [9] is SK-OV-3.
For experiment [10], the system named is M14.
In experiment [11] the test system is MDA-MB-435.
Experiment [12] concerns HCT-15.
The subject of experiment [13] is MCF7.
Experiment [14] relates to UACC-257.
The subject of experiment [15] is A498.
Experiment [16] relates to HT-29.
In experiment [17] the test system is SF-295.
Experiment [18] concerns OVCAR-5.
Experiment [19] has as its system NCI-H460.

Consider `COc1cc(C(c2cc3c(cc2O)OCO3)N2CCCC2)cc(OC)c1OC` (stereo not given), for which the GI50 in experiment [1] is 17.5 µM (inactive); in experiment [2], 16.1 µM (inactive); in [3], 17.4 µM (inactive); in experiment [4] it was 23.2 µM (inactive); in experiment [5], 16.2 µM (inactive); in experiment [6], 30.5 µM (inactive). Also, the GI50 is 15.4 µM (inactive) in experiment [7]; 15.8 µM (inactive) in experiment [8]; 30.3 µM (inactive) in experiment [9]; 24.5 µM (inactive) in [10]; 13.4 µM (inactive) in experiment [11]; 8.43 µM in experiment [12]. Besides, the GI50 was 26.9 µM (inactive) in [13]; 17.5 µM (inactive) in [14]; 21.4 µM (inactive) in experiment [15]; 10.4 µM (inactive) in [16]; 18.6 µM (inactive) in experiment [17]; 25.9 µM (inactive) in experiment [18].

For the compound `COP(=O)(OC)OCN(C)CC/C=C(\C)CC/C=C(\C)CCC=C(C)C`, the GI50 in [1] is 17.2 µM (inactive); in [2] it was 16 µM (inactive); in experiment [3], 15.4 µM (inactive); in experiment [4] it was 16.4 µM (inactive); in experiment [5], 14.8 µM (inactive); in experiment [6] it was 16.1 µM (inactive). The GI50 in [7] was 11.8 µM (inactive); in experiment [9] it was 28.5 µM (inactive); in experiment [10] it was 14.5 µM (inactive); in [11], 18.5 µM (inactive); in experiment [12], 16 µM; in experiment [13] it was 15.2 µM (inactive). Moreover, the GI50 is 5.02 µM (inactive) in experiment [14]; > 100 µM (inactive) in [15]; 16.6 µM (inactive) in experiment [17]; 11.7 µM (inactive) in experiment [19]; 15.5 µM (inactive) in [18].

With `O=C(Nc1sccc1S(=O)(=O)c1ccc(Cl)cc1)c1ccc(F)cc1F`, the GI50 is 21 µM (inactive) in experiment [1]; 30.9 µM (inactive) in [2]; 26.7 µM (inactive) in experiment [3]; 31.8 µM (inactive) in experiment [4]; 19.3 µM (inactive) in experiment [5]; 24.9 µM (inactive) in experiment [6]. Also, the GI50 in [7] was 45.8 µM (inactive); in [8] it was 25.8 µM (inactive); in [9] it was 21.9 µM (inactive); in experiment [10], > 100 µM (inactive); in [11] it was > 100 µM (inactive); in [12], 66.4 µM. Further, the GI50 in experiment [13] is 40.5 µM (inactive); in experiment [14], > 100 µM (inactive); in [15], 24.2 µM (inactive); in experiment [16] it was > 100 µM (inactive); in [17], 23.3 µM (inactive); in [18], 27.8 µM (inactive).

Consider `CC1(C)C(CCO)CC1n1cc(I)c(=O)[nH]c1=O` (stereo not given), for which the GI50 was > 100 µM (inactive) in experiment [3]; > 100 µM (inactive) in experiment [4]; > 100 µM (inactive) in experiment [5]; > 100 µM (inactive) in experiment [6]; > 100 µM (inactive) in experiment [7]; 21.1 µM (inactive) in experiment [8]. For the same compound, the GI50 was > 100 µM (inactive) in experiment [9]; > 100 µM (inactive) in [10]; > 100 µM (inactive) in [11]; > 100 µM in [12]; > 100 µM (inactive) in experiment [13]; > 100 µM (inactive) in experiment [14]. Besides, the GI50 in experiment [15], in experiment [17] and in experiment [18] was > 100 µM (inactive) in each case.

In the case of `O=S(=O)([C-]([I+]c1ccccc1)S(=O)(=O)C(F)(F)C(F)(F)C(F)(F)C(F)(F)F)C(F)(F)C(F)(F)C(F)(F)C(F)(F)F`, the GI50 in experiment [1] was 19.1 µM (inactive); in experiment [2], > 10 µM (inactive); in experiment [3], 3.97 µM (inactive); in experiment [4], 11.1 µM (inactive); in [5] it was 14.8 µM (inactive); in experiment [6], 16.8 µM (inactive). Further, the GI50 in experiment [8] is 17.9 µM (inactive); in experiment [9], 16.7 µM (inactive); in experiment [10], 13.6 µM (inactive); in experiment [11] it was 19.3 µM (inactive); in experiment [12], 15.2 µM; in [13], 6.05 µM (inactive). The GI50 in experiment [14] was 17.6 µM (inactive); in experiment [15] it was 14.8 µM (inactive); in [16] it was 17.4 µM (inactive); in experiment [17] it was 16.6 µM (inactive); in experiment [19] it was 17.7 µM (inactive); in experiment [18], 17.2 µM (inactive).

Consider `O=[N+]([O-])/C(C(Cl)=C(Cl)Cl)=C(\Nc1cccc2cccnc12)SCc1ccccc1`, for which the GI50 in [1] was 17 µM (inactive); in experiment [3] it was 20.3 µM (inactive); in experiment [4] it was 17.7 µM (inactive); in [5] it was 18.3 µM (inactive); in experiment [6] it was 15.8 µM (inactive); in experiment [7], 19.8 µM (inactive). Also, the GI50 in experiment [8] was 23.3 µM (inactive); in experiment [9], 15.8 µM (inactive); in experiment [10] it was 27.5 µM (inactive); in experiment [11] it was 21 µM (inactive); in [12], 19.9 µM; in experiment [13], 15.3 µM (inactive). The GI50 is 21.5 µM (inactive) in experiment [14]; 26.7 µM (inactive) in [15]; 23.6 µM (inactive) in [16]; 18.7 µM (inactive) in [17]; 21 µM (inactive) in experiment [19]; 30.8 µM (inactive) in [18].

For `O=c1[nH]nc(-c2ccc3ccccc3c2)[nH]1`, the GI50 in experiment [1] was > 100 µM (inactive); in experiment [2], > 100 µM (inactive); in [3] it was > 100 µM (inactive); in experiment [4] it was > 100 µM (inactive); in [5] it was 22.9 µM (inactive); in [6], > 100 µM (inactive). Moreover, the GI50 in [7] was > 100 µM (inactive); in experiment [8], 21 µM (inactive); in [10], > 100 µM (inactive); in experiment [11], > 100 µM (inactive); in experiment [12] it was > 100 µM; in [13] it was > 100 µM (inactive). In addition, the GI50 is > 100 µM (inactive) in experiment [14]; 80 µM (inactive) in experiment [15]; > 100 µM (inactive) in experiment [16]; 45.5 µM (inactive) in experiment [17]; > 100 µM (inactive) in experiment [19]; > 100 µM (inactive) in [18].

Consider `COc1ccc(NC(C)=O)c(C(O)CCNC(C)=O)c1` (stereo not given), for which the GI50 in experiment [1], in experiment [2], in [3], in experiment [4], in experiment [5] and in [7] was > 100 µM (inactive) in each case. Further, the GI50 is > 100 µM (inactive) in [8]; > 100 µM (inactive) in [9]; > 100 µM (inactive) in experiment [10]; > 100 µM (inactive) in [11]; > 100 µM in experiment [12]; > 100 µM (inactive) in [13]. Besides, the GI50 was > 100 µM (inactive) in [14]; 31.5 µM (inactive) in [15]; > 100 µM (inactive) in [16]; > 100 µM (inactive) in experiment [17]; > 100 µM (inactive) in experiment [19]; > 100 µM (inactive) in [18].
